Consider 17 molecules from patent US20160046618A1, “Cyclopropyl Fused Thiazin-2-Amine Compounds as Beta-Secretase Inhibitors and Methods of Use” (AMGEN INC., priority 2014, published 2016).

One experiment addresses human recombinant BACE2 (Homo sapiens (Human), UniProt Q9Y5Z0). The experiment is described as follows: In vitro enzymatic BACE2 FRET assay. Conditions: read-out: IC50 IP (μM) BACE2 enzyme. In kind it is biochemical. Put shortly:
(§1)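 Fluorescence from cleavage of a quenched peptide spanning the BACE site (50 nM) was read at 488 nm excitation, 590 nm emission. Purified enzyme (Ni-NTA) and compound reacted for one hour before a Tris stop shifted pH to neutral.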

A further experiment deals with human recombinant BACE1 (Homo sapiens (Human), UniProt P56817). Nature of the experiment: In vitro enzymatic BACE1 FRET assay. The format is biochemical. Conditions: read-out: IC50 IP (μM) BACE1 enzyme. The essentials:
as §1

Experiment [1] deals with Aβ40 in conditioned medium of cells stably expressing Amyloid Precursor Protein (APP). Nature of the experiment: In vitro BACE-1 cell-based assay (Aβ40 sandwich ELISA). Conditions: read-out: IC50 IP (μM) BACE1 cell. The essentials:
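Aβ40 in supernatants measured by time-resolved fluorescence sandwich ELISA, with pAb40 as capture and biotin-6E10 as detector antibody, each incubated at 4 °C.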

The next experiment concerns the target Recombinant Cat D (Homo sapiens (Human), UniProt P07339). The experiment is described as follows: In vitro enzymatic Cathepsin D (Cat D) FRET assay. Particulars: read-out: IC50 IP (μM) CatD. In kind it is biochemical. Put shortly:
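Fluorescence at 500 nm excitation and 580 nm emission reports cleavage of a quenched fluorophore–quencher peptide (20 nM) by CHO-expressed Cat D. Reactions ran one hour in 0.05 M citrate pH 3.5, 5 mM CHAPS, 10% DMSO final before a Tris stop raised pH to neutrality.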

Recombinant Cat D, sequence (P07339 65-412): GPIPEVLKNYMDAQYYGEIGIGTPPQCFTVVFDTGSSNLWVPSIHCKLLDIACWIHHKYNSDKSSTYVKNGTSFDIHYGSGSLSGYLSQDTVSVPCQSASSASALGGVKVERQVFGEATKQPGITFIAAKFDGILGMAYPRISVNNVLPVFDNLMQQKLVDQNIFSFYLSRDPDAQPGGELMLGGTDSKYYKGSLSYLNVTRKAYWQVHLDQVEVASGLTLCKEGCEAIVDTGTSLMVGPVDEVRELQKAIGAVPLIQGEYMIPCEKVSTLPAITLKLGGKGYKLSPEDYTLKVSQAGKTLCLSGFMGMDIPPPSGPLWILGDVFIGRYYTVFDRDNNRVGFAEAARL
human recombinant BACE1, sequence (P56817 46-501): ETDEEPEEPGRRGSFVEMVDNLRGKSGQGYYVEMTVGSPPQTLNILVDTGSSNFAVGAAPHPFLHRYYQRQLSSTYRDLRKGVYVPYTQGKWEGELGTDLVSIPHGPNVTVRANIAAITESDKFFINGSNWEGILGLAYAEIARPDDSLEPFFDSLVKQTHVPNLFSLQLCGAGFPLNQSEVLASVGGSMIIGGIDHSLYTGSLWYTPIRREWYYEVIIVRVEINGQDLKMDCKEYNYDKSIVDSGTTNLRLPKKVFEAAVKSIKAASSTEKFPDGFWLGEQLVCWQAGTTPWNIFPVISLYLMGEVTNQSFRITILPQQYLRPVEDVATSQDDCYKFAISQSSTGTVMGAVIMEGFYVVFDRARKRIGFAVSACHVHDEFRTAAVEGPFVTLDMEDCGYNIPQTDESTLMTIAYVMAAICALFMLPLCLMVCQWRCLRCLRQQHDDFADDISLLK
human recombinant BACE2, sequence (Q9Y5Z0 63-518): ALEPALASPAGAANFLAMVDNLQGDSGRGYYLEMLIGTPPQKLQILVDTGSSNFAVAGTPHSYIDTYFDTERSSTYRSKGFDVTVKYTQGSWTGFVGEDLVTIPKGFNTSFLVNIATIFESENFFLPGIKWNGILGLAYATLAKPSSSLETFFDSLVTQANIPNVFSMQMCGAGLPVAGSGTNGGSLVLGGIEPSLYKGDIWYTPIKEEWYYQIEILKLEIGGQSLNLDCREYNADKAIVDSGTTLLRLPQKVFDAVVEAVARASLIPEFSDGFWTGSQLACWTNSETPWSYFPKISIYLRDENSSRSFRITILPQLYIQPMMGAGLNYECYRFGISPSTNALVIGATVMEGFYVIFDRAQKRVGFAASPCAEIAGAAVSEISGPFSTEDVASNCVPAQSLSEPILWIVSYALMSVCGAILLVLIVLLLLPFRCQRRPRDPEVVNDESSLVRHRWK

The term IC50 denotes the concentration needed to halve the response being measured. With `C[C@]1(c2cc(NC(=O)c3ccc(Cl)cn3)cnc2F)N=C(N)S[C@H]2C[C@H]21` [Example 637, N-(5-((1S,5S,6S)-3-Amino-5-methyl-2-thia-4-azabicyclo[4.1.0]hept-3-en-5-yl)-6-fluoropyridin-3-yl)-5-chloropicolinamide], the half-inhibitory concentration (IC50) on human recombinant BACE2 was 0.00261 µM; on human recombinant BACE1 it was 0.0213 µM; in experiment [1] it was 0.0121 µM; on Recombinant Cat D, over 400 µM.

Consider `C[C@]1(c2cc(Nc3nccc4[nH]c(=O)cnc34)cnc2F)N=C(N)S[C@H]2C[C@H]21` [Example 638, 5-((5-((1S,5S,6S)-3-amino-5-methyl-2-thia-4-azabicyclo[4.1.0]hept-3-en-5-yl)-6-fluoropyridin-3-yl)amino)pyrido[3,4-b]pyrazin-2(1H)-one], for which the IC50 was 0.0314 µM at human recombinant BACE2, 0.0625 µM at human recombinant BACE1, 0.0517 µM in experiment [1] and over 400 µM at Recombinant Cat D.

Consider `C#CCOc1cnc2c(Nc3cnc(F)c([C@@]4(C)N=C(N)S[C@H]5C[C@H]54)c3)nccc2n1` [Example 639, (1S,5S,6S)-5-(2-fluoro-5-((2-(prop-2-yn-1-yloxy)pyrido[3,4-b]pyrazin-5-yl)amino)pyridin-3-yl)-5-methyl-2-thia-4-azabicyclo[4.1.0]hept-3-en-3-amine], for which the IC50 on human recombinant BACE2 was 0.0401 µM; at human recombinant BACE1, 0.00157 µM; in experiment [1] it was 0.00213 µM; at Recombinant Cat D it was 381 µM.

On to `C[C@]1(c2cc(Nc3nccc4cc(C#N)cnc34)cnc2F)N=C(N)S[C@H]2C[C@H]21` [Example 641, 8-((5-((1S,5S,6S)-3-amino-5-methyl-2-thia-4-azabicyclo[4.1.0]hept-3-en-5-yl)-6-fluoro-3-pyridinyl)amino)-1,7-naphthyridine-3-carbonitrile], for which the IC50 at human recombinant BACE2 was 0.00815 µM; at human recombinant BACE1 it was 0.0188 µM; in experiment [1] it was 0.00799 µM; on Recombinant Cat D, 1430 µM.

With `Cc1cc(OCc2ncco2)cnc1C(=O)Nc1ccc(F)c([C@@]2(C)N=C(N)S[C@@]3(C(F)F)C[C@@H]23)c1` [Example 642, N-(3-((1S,5S,6S)-3-amino-1-(difluoromethyl)-5-methyl-2-thia-4-azabicyclo[4.1.0]hept-3-en-5-yl)-4-fluorophenyl)-3-methyl-5-(1,3-oxazol-2-ylmethoxy)-2-pyridinecarboxamide], the IC50 on human recombinant BACE2 turned out to be 0.114 µM; on human recombinant BACE1, 0.00642 µM; in experiment [1], 0.0351 µM; on Recombinant Cat D, 434 µM.

For the molecule `Cc1cc(OCc2ncco2)cnc1C(=O)Nc1cc(F)c(F)c([C@@]2(C)N=C(N)S[C@@]3(C(F)F)C[C@@H]23)c1` [Example 643, N-(3-((1S,5S,6S)-3-amino-1-(difluoromethyl)-5-methyl-2-thia-4-azabicyclo[4.1.0]hept-3-en-5-yl)-4,5-difluorophenyl)-3-methyl-5-(1,3-oxazol-2-ylmethoxy)-2-pyridinecarboxamide], the IC50 at human recombinant BACE2 is 0.134 µM; on human recombinant BACE1, 0.00246 µM; in experiment [1], 0.0328 µM; at Recombinant Cat D, 751 µM.

Take `COC[C@]12C[C@H]1[C@@](C)(c1cc(NC(=O)c3ncc(OCc4ncco4)cc3C)ccc1F)N=C(N)S2` [Example 644, N-(3-((1S,5S,6S)-3-amino-1-(methoxymethyl)-5-methyl-2-thia-4-azabicyclo[4.1.0]hept-3-en-5-yl)-4-fluorophenyl)-3-methyl-5-(1,3-oxazol-2-ylmethoxy)-2-pyridinecarboxamide]: the IC50 on human recombinant BACE2 is 0.207 µM; at human recombinant BACE1, 0.014 µM; in experiment [1] it was 0.0137 µM; on Recombinant Cat D, over 400 µM.

For `COC[C@]12C[C@H]1[C@@](C)(c1cc(NC(=O)c3ncc(OCc4ncco4)cc3C)cc(F)c1F)N=C(N)S2` [Example 646, N-(3-((1S,5S,6S)-3-amino-1-(methoxymethyl)-5-methyl-2-thia-4-azabicyclo[4.1.0]hept-3-en-5-yl)-4,5-difluorophenyl)-3-methyl-5-(1,3-oxazol-2-ylmethoxy)-2-pyridinecarboxamide], the IC50 at human recombinant BACE2 was 0.211 µM; on human recombinant BACE1, 0.00656 µM; in experiment [1], 0.013 µM; on Recombinant Cat D, 865 µM.

In the case of `C#C[C@H](C)Oc1cnc(C(=O)Nc2cc(F)c(F)c([C@@]3(C)N=C(N)S[C@@]4(C(F)F)C[C@@H]34)c2)c(C)c1` [Example 647, N-(3-((1S,5S,6S)-3-amino-1-(difluoromethyl)-5-methyl-2-thia-4-azabicyclo[4.1.0]hept-3-en-5-yl)-4,5-difluorophenyl)-3-methyl-5-(((1S)-1-methyl-2-propyn-1-yl)oxy)-2-pyridinecarboxamide], the IC50 came out at 0.342 µM at human recombinant BACE2, 0.0236 µM on human recombinant BACE1, 0.259 µM in experiment [1] and 389 µM on Recombinant Cat D.

For `C#C[C@H](C)Oc1cnc(C(=O)Nc2ccc(F)c([C@@]3(C)N=C(N)S[C@@]4(COC)C[C@H]43)c2)c(C)c1` [Example 649, N-(3-((1S,5S,6S)-3-amino-1-(methoxymethyl)-5-methyl-2-thia-4-azabicyclo[4.1.0]hept-3-en-5-yl)-4-fluorophenyl)-3-methyl-5-(((1S)-1-methyl-2-propyn-1-yl)oxy)-2-pyridinecarboxamide], the IC50 at human recombinant BACE2 was 0.284 µM; on human recombinant BACE1 it was 0.0646 µM; in experiment [1] it was 0.131 µM; at Recombinant Cat D, 803 µM.

With `C#C[C@H](C)Oc1cnc(C(=O)Nc2cc(F)c(F)c([C@@]3(C)N=C(N)S[C@@]4(COC)C[C@H]43)c2)c(C)c1` [Example 650, N-(3-((1S,5S,6S)-3-amino-1-(methoxymethyl)-5-methyl-2-thia-4-azabicyclo[4.1.0]hept-3-en-5-yl)-4,5-difluorophenyl)-3-methyl-5-(((1S)-1-methyl-2-propyn-1-yl)oxy)-2-pyridinecarboxamide], the IC50 came to 0.556 µM at human recombinant BACE2, 0.0389 µM at human recombinant BACE1, 0.344 µM in experiment [1] and 777 µM at Recombinant Cat D.

Regarding `C#C[C@H](C)Oc1cnc(C(=O)Nc2ccc(F)c([C@@]3(C)N=C(N)S[C@@]4(CF)C[C@H]43)c2)c(C)c1` [Example 651, N-(3-((1S,5S,6S)-3-amino-1-(fluoromethyl)-5-methyl-2-thia-4-azabicyclo[4.1.0]hept-3-en-5-yl)-4-fluorophenyl)-3-methyl-5-(((1S)-1-methyl-2-propyn-1-yl)oxy)-2-pyridinecarboxamide], the IC50 was 0.397 µM on human recombinant BACE2, 0.0589 µM on human recombinant BACE1, 0.139 µM in experiment [1] and 1030 µM on Recombinant Cat D.

Regarding `Cc1cc(OCc2ncco2)cnc1C(=O)Nc1ccc(F)c([C@@]2(C)N=C(N)S[C@@]3(CF)C[C@H]32)c1` [Example 652, N-(3-((1S,5S,6S)-3-amino-1-(fluoromethyl)-5-methyl-2-thia-4-azabicyclo[4.1.0]hept-3-en-5-yl)-4-fluorophenyl)-3-methyl-5-(1,3-oxazol-2-ylmethoxy)-2-pyridinecarboxamide], the concentration for half-maximal inhibition (IC50) at human recombinant BACE2 was 0.142 µM; at human recombinant BACE1, 0.00756 µM; in experiment [1], 0.0256 µM; at Recombinant Cat D, over 400 µM.

Take `C#CCOc1cnc2c(Nc3cnc(F)c([C@@]4(C)N=C(N)S[C@@]5(C(F)F)C[C@@H]45)c3)nccc2n1` [Example 653, N-(5-((1S,5S,6S)-3-amino-1-(difluoromethyl)-5-methyl-2-thia-4-azabicyclo[4.1.0]hept-3-en-5-yl)-6-fluoro-3-pyridinyl)-2-(2-propyn-1-yloxy)pyrido[3,4-b]pyrazin-5-amine]: the IC50 at human recombinant BACE2 stood at 0.0192 µM; on human recombinant BACE1, 0.000544 µM; in experiment [1] it was 0.00151 µM; on Recombinant Cat D, 260 µM.

In the case of `C[C@]1(c2cc(Nc3nccc4nc(OCc5ncco5)cnc34)cnc2F)N=C(N)S[C@@]2(C(F)F)C[C@@H]12` [Example 654, N-(5-((1S,5S,6S)-3-amino-1-(difluoromethyl)-5-methyl-2-thia-4-azabicyclo[4.1.0]hept-3-en-5-yl)-6-fluoro-3-pyridinyl)-2-(1,3-oxazol-2-ylmethoxy)pyrido[3,4-b]pyrazin-5-amine], the IC50 was 0.0291 µM at human recombinant BACE2, 0.000931 µM on human recombinant BACE1, 0.00166 µM in experiment [1] and 861 µM on Recombinant Cat D.

On to `C[C@]1(c2cc(NC(=O)c3ccc(Cl)cn3)cnc2F)N=C(N)S[C@@]2(C(F)F)C[C@@H]12` [Example 655, N-(5-((1S,5S,6S)-3-amino-1-(difluoromethyl)-5-methyl-2-thia-4-azabicyclo[4.1.0]hept-3-en-5-yl)-6-fluoro-3-pyridinyl)-5-chloro-2-pyridinecarboxamide], for which the IC50 was under 0.00203 µM on human recombinant BACE2, 0.00455 µM at human recombinant BACE1, 0.006 µM in experiment [1] and 1720 µM at Recombinant Cat D.

With `CC(C)NC(=O)c1cnc2c(Nc3cnc(F)c([C@@]4(C)N=C(N)S[C@@]5(C(F)F)C[C@@H]45)c3)nccc2c1` [Example 656, 8-((5-((1S,5S,6S)-3-amino-1-(difluoromethyl)-5-methyl-2-thia-4-azabicyclo[4.1.0]hept-3-en-5-yl)-6-fluoro-3-pyridinyl)amino)-N-(1-methylethyl)-1,7-naphthyridine-3-carboxamide], the IC50 on human recombinant BACE2 is 2.35 µM; on human recombinant BACE1, 0.387 µM; in experiment [1], 0.624 µM; at Recombinant Cat D, 998 µM.
